Measurements reported in patent US20020168426A1, “Composition comprising extracts of flos lonicerae, fructus forsythiae and radix scutellariae, uses and preparation thereof” (priority 2000, published 2002).
Counter-ions that a name gives are not always drawn.

Assays:
[1] = system: ileum contraction induced by histamine; assay: Anti-anaphylaxis test: histamine-induced contraction of isolated ileum; design: species or system guinea pig
Method: A three-color guinea pig was used in the following experiment. The extracts of Flos Lonicerae, Fructus Forsythiae and Radix Scutellariae, both with supercritical fluid extraction and with subboiling aqueous extraction, were used as test drugs. Ebalin, an antihistamine, was used as the control drug.
The ileum of a guinea pig was taken and hung on a Magnus' bath. The basic contraction frequency of the ileum was recorded with the MacLab method. There was a total of four groups involved in this experiment: the histamine alone, the histamine plus Ebalin, the histamine plus the supercritical extract of Flos Lonicerae, Fructus Forsythiae and Radix Scutellariae, and the histamine plus sub-boiling aqueous extract. The test curves were respectively recorded after the administration of the histamine and the other test drugs. The inhibitory rate and exciting rate were calculated with the following formula: [formula]

[2] = system: Influenza A; assay: Inhibitory effect for virus, Cytopathic Effect (CPE) method, monolayer Holn cells; assay type: cell-based; design: key: “−”: Virus proliferation was inhibited and no pathologic change was found in the cells.; “+”: The cell had pathologic change
[3] = system: ADV3; assay: as above; assay type: cell-based; design: key: “−”: Virus proliferation was inhibited and no pathologic change was found in the cells.; “+”: The cell had pathologic change
[4] = system: HSV-II; assay: as above; assay type: cell-based; design: key: “−”: Virus proliferation was inhibited and no pathologic change was found in the cells.; “+”: The cell had pathologic change
[5] = system: RSV; assay: as above; assay type: cell-based; design: key: “−”: Virus proliferation was inhibited and no pathologic change was found in the cells.; “+”: The cell had pathologic change
[6] = system: Influenza virus A3; assay: Anti-virus test: inhibition of virus-induced cytopathy in Hep-2 cells; assay type: cell-based; conditions: 125 μg/ml
[7] = system: Virus Pneumonia induced by influenza; assay: Anti-virus test in vivo: Virus Pneumonia induced by influenza; design: species or system Mice; conditions: dosage 0.07 g/kg
Description: B. Anti-virus test in vivo

[8] = system: RSV; assay: Anti-virus test: inhibition of virus-induced cytopathy in Hep-2 cells; assay type: cell-based; conditions: 125 μg/ml
[9] = system: herpes I virus (HSV-I); assay: as above; assay type: cell-based; conditions: 125 μg/ml
[10] = system: parainfluenza virus I (HVJ); assay: as above; assay type: cell-based; conditions: 125 μg/ml

CN(C)CCC(c1ccc(Br)cc1)c1ccccn1.O=C(O)/C=C\C(=O)O (stereo not shown) [Ebalin]
133.81 ± 405.5 %: Ileum contraction with histamine plus test drug ([1]; Table 14: histamine 3.3 × 10^−6 g/ml + 1 × 10^−6 g/ml, histamine alone 235.29 ± 35.30)
181 ± 32 %: Ileum contraction with histamine plus test drug ([1]; Table 13: histamine 3.3 × 10^−6 g/ml + test drug 1 × 10^−3 g/ml, histamine alone 271 ± 42)

N=C(N)/N=C(\N)N1CCOCC1 [Moroxydine hydrochloride]
+: Inhibitory effect for the virus (CPE) ([2]; 1%, 10 mg/ml) | Inhibitory effect for the virus (CPE) ([3]; 1%, 10 mg/ml) | Inhibitory effect for the virus (CPE) ([3]; 5%, 50 mg/ml) | Inhibitory effect for the virus (CPE) ([3]; 10%, 100 mg/ml) | Inhibitory effect for the virus (CPE) ([3]; 15%, 150 mg/ml) | Inhibitory effect for the virus (CPE) ([3]; 20%, 200 mg/ml) | Inhibitory effect for the virus (CPE) ([4]; 1%, 10 mg/ml) | Inhibitory effect for the virus (CPE) ([4]; 5%, 50 mg/ml) | Inhibitory effect for the virus (CPE) ([4]; 10%, 100 mg/ml) | Inhibitory effect for the virus (CPE) ([4]; 15%, 150 mg/ml) | Inhibitory effect for the virus (CPE) ([4]; 20%, 200 mg/ml) | Inhibitory effect for the virus (CPE) ([5]; 1%, 10 mg/ml) | Inhibitory effect for the virus (CPE) ([5]; 5%, 50 mg/ml) | Inhibitory effect for the virus (CPE) ([5]; 10%, 100 mg/ml) | Inhibitory effect for the virus (CPE) ([5]; 15%, 150 mg/ml) | Inhibitory effect for the virus (CPE) ([5]; 20%, 200 mg/ml)
−: Inhibitory effect for the virus (CPE) ([2]; 5%, 50 mg/ml) | Inhibitory effect for the virus (CPE) ([2]; 10%, 100 mg/ml) | Inhibitory effect for the virus (CPE) ([2]; 15%, 150 mg/ml) | Inhibitory effect for the virus (CPE) ([2]; 20%, 200 mg/ml)

NC(=O)c1ncn([C@@H]2O[C@H](CO)[C@@H](O)[C@H]2O)n1 [Ribavirin]
+: Anti-virus effect of Ribavirin [6] | Anti-virus effect of Ribavirin [8] | Anti-virus effect of Ribavirin [9] | Anti-virus effect of Ribavirin [10]
1.16 ± 0.15: Lung index (X ± SD) ([7]; infection control 1.54 ± 0.25)
24.68%: Inhibitive rate (100%) [7]
